Assay results as given in US9284345B2 (priority 2007, dated 2016).
Values joined by “and” are separate entries in the source; they are usually repeats but may differ in a detail not shown here. Identical values can stand only once. Like-named read-outs stand apart in the source and are kept apart here.

Key:
[1] = tested on: CX+ 4-DIONE in Mature Rat; assay: Systemic antiandrogenic activity in mature male rats; type: in vivo
Intact Rat = assay: In vivo activity in intact rat (organ and muscle weight); settings: rat, in vivo
in vivo = settings: male, Sprague-Dawley, rat, po, 0.5 mg
Immature Rat CX + DHT = assay: animal or person; type: in vivo; settings: for change in vivo at 0.1 mg / change in vivo at 0.5 mg: Rattus norvegicus, 168 h; for change in vivo at 0.1 mg / change in vivo at 0.5 mg / In Vivo Anti-A Rat CX + DHT % change vs DHT (CX CONT = −100%) Bulbo / In Vivo Anti-A Rat CX + DHT % change vs DHT (CX CONT = −100%) SV / In Vivo Anti-A Rat CX + DHT % change vs DHT (CX CONT = −100%) VP: po
Human Androgen Receptor = molecular target: T1, Human Androgen Receptor (Homo sapiens, UniProt P10275); type: binding
T1 construct: expressed in transfected cells; host or cells: HEK-293 cells stably transfected with the pCMVneo-hAR plasmid (G-418 selection); cytosol used
T1 sequence (P10275 1-920): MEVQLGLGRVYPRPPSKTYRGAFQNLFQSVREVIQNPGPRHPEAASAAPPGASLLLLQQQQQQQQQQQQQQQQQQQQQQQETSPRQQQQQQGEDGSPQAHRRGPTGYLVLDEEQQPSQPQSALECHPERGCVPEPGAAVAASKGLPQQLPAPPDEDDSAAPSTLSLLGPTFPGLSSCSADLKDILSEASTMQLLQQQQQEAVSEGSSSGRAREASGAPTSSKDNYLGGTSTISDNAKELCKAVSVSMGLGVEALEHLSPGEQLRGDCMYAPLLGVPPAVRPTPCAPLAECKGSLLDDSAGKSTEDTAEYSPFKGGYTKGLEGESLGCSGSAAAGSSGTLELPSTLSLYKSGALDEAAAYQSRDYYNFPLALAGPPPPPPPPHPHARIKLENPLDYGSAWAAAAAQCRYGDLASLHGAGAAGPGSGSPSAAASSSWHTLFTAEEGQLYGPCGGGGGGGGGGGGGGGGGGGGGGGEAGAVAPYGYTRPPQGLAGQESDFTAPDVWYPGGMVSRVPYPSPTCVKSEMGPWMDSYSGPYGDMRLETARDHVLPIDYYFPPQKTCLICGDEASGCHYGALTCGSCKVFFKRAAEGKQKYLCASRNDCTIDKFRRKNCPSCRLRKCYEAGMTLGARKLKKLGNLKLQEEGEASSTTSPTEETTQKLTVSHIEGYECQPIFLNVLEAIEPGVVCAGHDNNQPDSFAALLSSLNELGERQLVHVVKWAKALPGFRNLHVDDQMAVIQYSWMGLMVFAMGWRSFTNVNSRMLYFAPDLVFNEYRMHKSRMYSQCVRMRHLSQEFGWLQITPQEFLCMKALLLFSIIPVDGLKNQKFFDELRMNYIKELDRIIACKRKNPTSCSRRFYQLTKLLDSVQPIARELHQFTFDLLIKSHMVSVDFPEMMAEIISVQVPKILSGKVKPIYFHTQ

[2] = tested on: Shionogi mouse mammary carcinoma cells; assay: cells; type: cell-based; settings: for Ki: read-out: Shionogi cells Antiandrogenic activity Ki
androgen receptor = assay: Antiandrogen / SARM / androgen profile observed on structural change; settings: structure-activity observation in estratriene derivatives
Description: Preferred positions on the steroid to this change in activities are 3, 4, 11β, 16 and 17α. […] Moreover, when we changed the 4-fluoro by a 4-chloro on EM-6583, we obtained a pure androgen (EM-5697). Similarly, when we increased the size of the chain at 17α-position on (1,4-phenylene as a spacer group), EM-8419 became a SARM. Again, when we changed the 4-fluoro by a 4-chloro on EM-8419, we obtained a pure androgen (EM-5313).
We also believed that a larger size increase could reverse the observed tendency (androgen to SARM or antiandrogen). Thus, it is not obvious to make good predictions of the biological activity of this compound family but some trends are observable.

Rat Androgen Receptor = molecular target: T2, Rat Androgen Receptor (Rattus norvegicus, UniProt P15207); assay: Androgen receptor binding assay (HAP, [3H]R1881), rat prostate cytosol
T2 construct: ventral prostates collected from 24 h-gonadectomized rats were homogenized in buffer A; from tissue; host or cells: rat ventral prostate cytosol (24 h-gonadectomized rats)
T2 sequence (P15207 1-902): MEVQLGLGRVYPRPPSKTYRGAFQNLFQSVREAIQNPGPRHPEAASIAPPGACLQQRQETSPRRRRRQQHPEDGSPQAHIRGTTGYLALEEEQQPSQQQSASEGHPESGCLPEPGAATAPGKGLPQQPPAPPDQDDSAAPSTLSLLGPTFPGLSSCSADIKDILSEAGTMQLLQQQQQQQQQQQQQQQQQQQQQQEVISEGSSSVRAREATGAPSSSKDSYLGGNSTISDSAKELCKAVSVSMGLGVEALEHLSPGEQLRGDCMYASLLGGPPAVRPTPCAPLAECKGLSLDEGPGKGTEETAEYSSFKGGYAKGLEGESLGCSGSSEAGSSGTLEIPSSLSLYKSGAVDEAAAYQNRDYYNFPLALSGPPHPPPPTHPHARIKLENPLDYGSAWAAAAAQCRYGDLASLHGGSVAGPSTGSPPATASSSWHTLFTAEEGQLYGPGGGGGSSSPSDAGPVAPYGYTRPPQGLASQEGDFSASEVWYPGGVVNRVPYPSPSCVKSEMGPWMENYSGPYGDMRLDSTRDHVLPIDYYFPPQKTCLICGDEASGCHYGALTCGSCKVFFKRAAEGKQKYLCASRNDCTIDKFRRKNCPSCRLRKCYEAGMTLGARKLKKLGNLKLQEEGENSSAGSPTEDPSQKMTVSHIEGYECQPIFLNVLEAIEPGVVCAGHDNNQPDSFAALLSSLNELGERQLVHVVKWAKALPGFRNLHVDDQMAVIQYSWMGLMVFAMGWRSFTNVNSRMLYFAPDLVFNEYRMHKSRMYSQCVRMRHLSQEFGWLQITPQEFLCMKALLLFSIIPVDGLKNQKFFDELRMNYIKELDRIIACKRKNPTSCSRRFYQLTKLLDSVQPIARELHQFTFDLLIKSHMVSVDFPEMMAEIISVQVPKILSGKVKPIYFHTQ
Protocol: On the morning of the binding assay, ventral prostates collected from 24 h-gonadectomized rats were homogenized in buffer A (1 g of tissue in 5 mL) and the homogenate was centrifuged as described above.
Androgen binding is measured using the hydroxylapatite (HAP) assay. In brief, the radioactive steroid [^3H]R1881 solubilized in ethanol is diluted with buffer B (10 mM Tris-HCl, 1.5 mM EDTA disodium salt, 10 mM α-monothioglycerol, pH 7.4). Aliquots of the cell or prostate cytosol preparation (0.1 ml) are then incubated with 5 nM [^3H]R1881 (0.1 ml, ˜100 000 cpm) in the presence or absence of the indicated concentrations of unlabeled compounds (0.1 ml, prepared in buffer B containing 30% ethanol) for 16-18 h at 0-4° C. Triamcinolone acetonide (TAC; 100 nM) is added to mask progesterone receptors. Unbound steroids are separated by incubation for 40 min at 0-4° C. with 0.3 ml HAP prepared in buffer P (50 mM Tris-HCl, 10 mM KH2PO4, pH 7.4). After incubation with HAP and 10 min of centrifugation at 1000×g, the pellet is washed 3 times with 1 ml of buffer P. Thereafter, the radioactivity is extracted from the pellet by incubation at room temperature for 60 min with 1 ml of ethanol. After centrifugation, the supernatant is decanted into a scintillation vial and the pellet is extracted again with ethanol. After the addition of scintillation liquid, the radioactivity is measured in a liquid scintillation counter.

[3] = in vivo
[4] = read-out: In Vivo Antagonist % Change vs DHT (CX = −100%) SV
[5] = read-out: In Vivo Antagonist % Change vs DHT (CX = −100%) VP

Compound	% change vs 4-DIONE Cont (CX Cont = −100% inh) Seminal Vesicles ([1]; 1 mg/rat/per os/ID)	% change vs 4-DIONE Cont (CX Cont = −100% inh) Ventral Prostate ([1]; 1 mg/rat/per os/ID)	In Vivo Intact Rat % change vs Intact CONT (Intact CONT = +100%; CX CONT = 0%) Bulbo (Intact Rat)	In Vivo Intact Rat % change vs Intact CONT (Intact CONT = +100%; CX CONT = 0%) SZ (Intact Rat)	In Vivo Intact Rat % change vs Intact CONT (Intact CONT = +100%; CX CONT = 0%) VP (Intact Rat)	AUC (in vivo; in vivo)	change in vivo at 0.1 mg (Immature Rat CX + DHT; [4])	change in vivo at 0.5 mg (Immature Rat CX + DHT; [4])	change in vivo at 0.1 mg (Immature Rat CX + DHT; [5])	change in vivo at 0.5 mg (Immature Rat CX + DHT; [5])	inhibition of DHT-stimulated seminal vesicle weight (Immature Rat CX + DHT; rat, in vivo)	inhibition of DHT-stimulated ventral prostate weight (Immature Rat CX + DHT; rat, in vivo)	In Vivo Anti-A Rat CX + DHT % change vs DHT (CX CONT = −100%) Bulbo (Immature Rat CX + DHT; rat, in vivo)	In Vivo Anti-A Rat CX + DHT % change vs DHT (CX CONT = −100%) SV (Immature Rat CX + DHT; rat, in vivo)	In Vivo Anti-A Rat CX + DHT % change vs DHT (CX CONT = −100%) VP (Immature Rat CX + DHT; rat, in vivo)	Human Androgen Receptor Binding RBA (%) R1881 = 100% (Human Androgen Receptor)	Shionogi cells Antiandrogenic activity Ki OH-Flu/Ki compound [2]	Ki [2]	activity profile (antiandrogen, SARM or androgen) (androgen receptor)	Rat Androgen Receptor Binding RBA (%) R1881 = 100% (Rat Androgen Receptor)	also measured
CC(C)C(=O)Nc1ccc([N+](=O)[O-])c(C(F)(F)F)c1 [Flutamide, reference compound]	−102 ± 8%	−47 ± 7%	+42 ± 6%	+33 ± 4%	+75 ± 4%	39 ± 4 ng·h/mL	-62 ± 4%	-83%	-26 ± 2%	-48%	83%	48%	[−68 ± 2] %	[−83 ± 1] %	[−48 ± 1] %						inhibition of prostate weight (4-dione stimulated) ([1]; 5 mg/rat): 70%; % change vs 4-DIONE Cont (CX Cont = −100% inh) Seminal Vesicles ([1]; 5 mg/rat/per os/ID): −106 ± 6%; % change vs 4-DIONE Cont (CX Cont = −100% inh) Ventral Prostate ([1]; 5 mg/rat/per os/ID): −70 ± 3%; In Vivo Agonist % Change vs CX (DHT = +100%) SV (Immature Rat CX; sc): (0; 0.2 mg, sc) %; In Vivo Agonist % Change vs CX (DHT = +100%) VP (Immature Rat CX; sc): (1; 0.2 mg, sc) %
C[C@]12CCC3c4ccc(C#N)c(F)c4CCC3C1CC[C@@]2(O)Cc1cc[n+]([O-])cc1 (stereo partly shown) [EM-5854]	−109 ± 5%	−67 ± 2%					-86 ± 2%	-85%	-46 ± 2%	-76%	85%	76%				0.63 ± 0.08%	5.5 and 5.5 ± 1.2	2.5 ± 0.4 nM	pure antiandrogen	0.4 ± 0.1%	% change vs 4-DIONE Cont (CX Cont = −100% inh) Seminal Vesicles ([1]; 0.2 mg/rat/per os/ID): −69 ± 7%; % change vs 4-DIONE Cont (CX Cont = −100% inh) Ventral Prostate ([1]; 0.2 mg/rat/per os/ID): −34 ± 7%; reversal of the stimulatory effect of 4-dione on ventral prostate weight ([1]; daily oral dose of 1 mg/rat): 67%; 4-dione-induced stimulation of seminal vesicle weight ([1]; orchidectomized mature rats with 4-dione implants): completely reversed; AUC (in vivo; plasma): 2930 ± 233 ng·h/mL; potency on rat androgen-sensitive parameters relative to currently available antiandrogens (Immature Rat CX + DHT; rat, in vivo): approximately 5 times
CC12CCC3c4ccc(C#N)c(Cl)c4CCC3C1CCCC2(O)Cc1cc[n+]([O-])cc1 (stereo not shown) [EM-5945]																2.8 ± 0.4%	13	0.9 nM		0.3%	Prostate Conc, 7 h (Rat) ([3]; po): 1539 ng/g
CC12CCC3c4ccc(C#N)c(F)c4CCC3C1CCC2(O)Cc1ccc(-c2ccc[n+]([O-])c2)cc1 (stereo not shown) [EM-8419]			+238 ± 12%	+76 ± 2%	+89 ± 5%								+36 ± 11%	−33 ± 7%	−36 ± 0%	83 ± 35%			became a SARM		% of stim of basal at 10^−7M (% over basal) [2]: +94 ± 17%; % of stim of basal at 10^−7 M (DHT = 100%) [2]: +62 ± 11%; % of inh of DHT at 10^−7 M (Basal = 100%) ([2]; 0.0003 µM): +21 ± 11%; AUC 24 h 0.5 mg/rat oral [3]: 5725 ± 595 ng·h/mL; In Vivo Agonist Rat CX % change vs CX (DHT CONT = +100%) Bulbo (Immature Rat CX): +115 ± 4%; In Vivo Agonist Rat CX % change vs CX (DHT CONT = +100%) SV (Immature Rat CX): +26 ± 2%; In Vivo Agonist Rat CX % change vs CX (DHT CONT = +100%) VP (Immature Rat CX): +39 ± 6%
CC(C)(O)C(=O)Nc1ccc([N+](=O)[O-])c(C(F)(F)F)c1 [Hydroxyflutamide, reference compound]						5380 ± 820 ng·h/mL										0.21 ± 0.09%	1	16.8 ± 0.5 nM		0.1%	
